# Experimental data published in patent US20230277483A1, “COMPOSITIONS AND METHODS TO TREAT INFLAMMATION” (University of Iowa Research Foundation, priority 2022, published 2023).
# What was measured:
# [1] = system: DIO-mice (C57BL/6J on 60% kCal high-fat diet); test: Diet-induced obesity (DIO) mouse model, IP HCA; type: in vivo
# Method: Animal care and experimental procedures were performed with approval from the University of Iowa's Institutional Animal Care and Use Committee. Animals received humane care in compliance with the Guide for the Care and Use of Laboratory Animals (National Academies Press, 2011) and with the Principles of Laboratory Animal Care formulated by the National Society for Medical Research. C57BL/6J mice (The Jackson Laboratory, 000664) were kept on a 12-hour light/dark cycle. Mice used to generate the DIO model were placed on a 60% kCal high-fat diet (HFD, Research Diets, D12492) immediately after weaning (i.e., at 3 weeks of age). After 16 weeks, lean and DIO-mice were intraperitoneally (IP) injected with 0.5 uM HCA or PBS control every other day for three weeks. Body weight was measured weekly. All tissues were harvested, frozen in liquid nitrogen, and kept at −80° C. until processed.
# Total RNA was isolated using TRIzol reagent (Invitrogen, 15-596-018) and reverse transcribed into cDNA using the iScript cDNA synthesis kit (Bio-Rad, 1708890). Quantitative real-time RT-PCR analysis was performed using SYBR Green (Invitrogen, KCQS00).
# Proteins were extracted from cells or tissues and subjected to SDS-polyacrylamide gel electrophoresis, as previously described (Yang et al., 2015). Membranes were incubated with anti-p-AKT (Ser473, Cell Signaling, 9271); anti-AKT1 (H-136, Santa Cruz, sc-8312) or anti-ACTB (H-300, Santa Cruz, sc-10731) at 1:1000 and then incubated with the appropriate secondary antibody conjugated with horseradish peroxidase (1:5000, Santa Cruz, sc-2005 or 1:5000, Cell Signaling Technology, 7074S). Signal was detected using the ChemiDoc Touch Imaging System (Bio-Rad), and densitometric analyses of western blot images were performed using Image Lab software (Bio-Rad).
# For immunohistochemistry, tissues were fixed with 4% PFA and sectioned at 5 μm thick, followed by deparaffinization and rehydration processes. Tissue sections were stained using H&E. The images were observed under a Nikon microscope (10×).
# Blood samples were centrifuged (4° C., 5000 g, 30 min) to obtain serum. Ten microliters of serum per sample were required for each index analysis. Serum alanine aminotransferase (ALT) and aspartate aminotransferase (AST) were measured by commercial kits. Serum IL-1β, IL-6 and free fatty acid (FFA) content were measured by ELISA (Il-1beta, Biolegend, Cat No. 432604; Il6) or a FFA fluorometric kit (Cayman Chemical, No. 700310), respectively, and then normalized to total protein (BCA).
# Whole-body energy expenditure and body composition: Respiratory exchange ratio (RER) and locomotor activity were monitored using a Comprehensive Lab Animal Monitoring System (CLAMS, Columbus Instruments) at the Fraternal Order of Eagles Metabolic Phenotypic Core. Body composition was measured by using Bruker Minispecs (LF50).
# Animals were fasted for 6 hours prior to ITT. Insulin tolerance was tested by measuring glucose concentration at different time points after intraperitoneal (IP) insulin injection (0.5 U/kg body weight; Humulin R) (Qian et al., 2018).
# HGF = test: Anti-inflammatory miR expression after Pg-LPS challenge; type: cell-based, human; details: 24 hours after Pg-LPS challenge
# Method: FIGS. 11A-11B. Sg metabolites upregulate anti-inflammatory miRs in human macrophages and HGF. A-B: Relative transcript changes of miR-200c, 146a, and 21 in HGF (A) and human MDM (B) treated with AICAR, MA, HCA, and HPLA 24 hours after Pg-LPS challenge; performed in duplicate.
# [2] = system: epidydimal white adipose tissues (eWAT); test: eWAT explants from mice on a HFD for 16 weeks; type: cell-based, mouse; details: HCA at 0.5 and 1.0 μM; 16 hours post treatment
# Method: In addition, freshly isolated epidydimal white adipose tissues (eWAT) from mice on a HFD for 16 weeks were minced and cultured in 24-well plates and treated with HCA at 0.5 and 1.0 μM in DMEM/F-12 containing 10% cosmic calf serum (CCS) and 1% penicillin-streptomycin (basal growth media, BGM). […] These preliminary data are strong evidence that Sg metabolites have the potential to modulate host inflammatory responses and attenuate inflammation.
# Pg (ATCC 49417) = test: Pg proliferation measured by OD600 under HCA; type: cell-based, Porphyromonas gingivalis; details: HCA at 0.1 and 10 μM; after 48 and 72 hrs vs untreated controls
# Method: Pg (ATCC 49417), a key pathogen of periodontitis, was cultured at 24 well-plates with BHI medium at 90% N2, 5% H2, 5% CO2. HCA at 0.1 and 10 μM was applied.
smiles,measurement,setting,value
"O=C(O)CCCCCO [HCA, 6-hydroxycaproic acid]",liver expression of Atg1 and Cd36,[1]; HCA vs HFD alone,increased expression
same,liver expression of Hsl,[1]; HCA vs HFD alone,significantly reduced
same,Serum free fatty acid (FFA) content,[1]; HCA vs HFD controls,reduced circulating levels
same,fasting glucose,"[1]; HFD-fed, HCA-treated",HFD-mediated effects were reduced
same,pAKT in eWAT (insulin signaling),"[1]; HFD-fed, HCA-treated",increased pAKT
same,insulin tolerance (ITT),"[1]; HFD-fed, HCA-treated, insulin 0.5 U/kg IP",HFD-mediated effects were reduced
same,lean mass,"[1]; HFD, 0.5 uM HCA IP every other day for three weeks",increased
same,BW gain,"[1]; HFD, 0.5 uM HCA IP every other day for three weeks, vs HFD group",significantly reduced
same,eWAT RNA-seq: chemokine signaling and leukocyte migration,"[1]; HFD, HCA",downregulated
same,"eWAT RNA-seq: fatty acid metabolism, oxidation and absorption, PPAR gamma and AMPK signaling","[1]; HFD, HCA",significantly increased
same,liver Il1b transcript levels,"[1]; HFD, HCA",significantly reduced
same,"serum IL-6, IL-1β, and leptin","[1]; HFD, HCA",reduced
same,eWAT Adipoq and Ppargamma levels,"[1]; HFD, HCA-treated",levels increased
same,"eWAT mRNA expression of Il6, Nos2 and Lep","[1]; HFD, HCA-treated",significantly reduced
same,serum ALT levels,"[1]; HFD, HCA-treated",reduced
same,"morphology of liver, iWAT and eWAT (H&E)","[1]; HFD, HCA-treated vs HFD alone",showed improvement
same,activity (locomotor),"[1]; HFD, HCA-treated, CLAMS",increased activity
same,respiratory exchange ratio (RER),"[1]; HFD, HCA-treated, CLAMS",shift in respiratory exchange ratio (RER) towards increased carbohydrate metabolism
same,eWAT Cd36 and Gpr81,[1]; compared to HFD controls,induced
same,"GPR137B, GPR176, GPR65, GPR85, and FABP7 in WAT (mRNA-seq)",[1]; obese mice treated with HCA,upregulation
same,PPARγ in white adipose tissues (WAT),"[1]; obese mice, systemic administration of HCA",upregulation
same,"anti-inflammatory miRs (miR-200c, 146a, and 21)",HGF,upregulate
same,protein level of IL-6 in cultured media,[2],significantly reduced
same,"transcripts of IL-6, IL-1β, and Nos2",[2],significantly reduced
same,OD600 value of Pg,Pg (ATCC 49417),significantly reduced
